Assay results as given in patent US20250099420A1, “SMALL MOLECULE MODULATORS OF GPR139 COMPLEX” (University of Florida Research Foundation, Incorporated, priority 2022, published 2025).
Read-outs that look alike come from different tables or passages of the source.

How the values were obtained:
[1] = target: T1, GPR139 (Homo sapiens, UniProt Q6DWJ6); assay: GPR139 Agonist titration / agonist counterscreen assay (calcium detection, HEK-GPR139 cells); assay type: cell-based; parameters: expressed in transfected cells; host or cells: HEK Aequorin cells, Maxcyte transient transfection; settings: GPR139 Agonist Activity; for Averaged Max % Response (±St. Dev.): activity relative to known control; for EC50: read-out: EC50
T1 sequence (Q6DWJ6 1-353): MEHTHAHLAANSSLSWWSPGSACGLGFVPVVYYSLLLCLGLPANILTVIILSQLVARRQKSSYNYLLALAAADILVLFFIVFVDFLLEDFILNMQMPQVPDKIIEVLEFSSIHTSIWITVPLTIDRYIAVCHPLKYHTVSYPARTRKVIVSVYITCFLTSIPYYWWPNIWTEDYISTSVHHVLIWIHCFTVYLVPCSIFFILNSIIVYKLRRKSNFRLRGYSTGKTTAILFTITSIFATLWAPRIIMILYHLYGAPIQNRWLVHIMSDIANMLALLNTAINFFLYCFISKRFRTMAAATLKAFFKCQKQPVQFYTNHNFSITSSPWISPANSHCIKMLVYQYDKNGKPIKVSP
Method: GPR activity was assessed using a calcium detection assay. […] Negative control samples were treated with DMSO. […] Intracellular calcium was measured using Calcium 5.

[2] = tested on: parental HEK cells; assay: HEK parental Agonist Counterscreen Assay (non-transfected cells); assay type: cell-based; settings: for Averaged Max % Response (±St. Dev.): activity relative to known control
Text: The high control for the agonist counterscreen was Forskolin not acetylcholine.

[3] = values printed in E-notation without unit
[4] = Homo sapiens, HEK293, HEK Agonist Activity section of Table 4 (parental HEK counterscreen)
[5] = Homo sapiens, HEK293, HEK Agonist Activity, parental non-transfected HEK cells
[6] = HEK Agonist Activity section of Table 4 (parental HEK counterscreen)

Row | SMILES | Averaged Max % Response (±St. Dev.) [1] [%] | Lipophilic Efficiency (logD) ([1]; based on logD) | Lipophilic Efficiency (logP) ([1]; based on logP) | Hill Slope ([1]; fitted dose-response curve) | Efficiency Ligand ([1]; ligand efficiency) | EC50 [1, 3] [nM] | Lipophilic Efficiency (logD) ([2]; HEK Agonist Activity section) | Lipophilic Efficiency (logP) ([2]; HEK Agonist Activity section) | Averaged Max % Response (±St. Dev.) ([2]; HEK Agonist Activity section) [%] | EC50 [2, 4] [nM] | Lipophilic Efficiency (logD) ([2]; HEK Agonist Activity) | Lipophilic Efficiency (logP) ([2]; HEK Agonist Activity) | Averaged Max % Response (±St. Dev.) ([2]; HEK Agonist Activity) [%] | EC50 [2, 5] [nM] | Efficiency Ligand [1] | Hill Slope [1] | Lipophilic Efficiency (logD) [1] | Lipophilic Efficiency (logP) [1] | EC50 ([1]; HEK-GPR139 cells) [nM] | EC50 [2, 6] [nM]
1 | COc1ccc(C(=O)NNC(=O)COc2ccc(Cl)cc2Cl)cc1OC [SR-01000357814] | 103.91 ± 10.30 | 4.04 | 3.99 | 0.77 | 0.36 | 231 | 2.25 | 2.21 | 7.60 ± 11.41 | > 14100 | – | – | – | – | – | – | – | – | – | –
2 | COc1cc(OC)cc(C(=O)NNC(=O)C(C)Oc2ccc(Cl)cc2Cl)c1 (stereo not drawn) [SR-01000358013] | 146.26 ± 17.42 | 4.56 | 4.52 | 0.21 | 0.40 | – | – | – | – | – | 1.68 | 1.64 | 22.28 ± 14.14 | > 14100 | – | – | – | – | – | –
3 | COc1cc(OC)cc(C(=O)NNC(=O)COc2cc(C)c(Cl)c(C)c2)c1 [SR-01000358286] | 88.73 ± 9.49 | – | – | – | – | – | 1.79 | 1.78 | 17.27 ± 10.49 | – | – | – | – | – | 0.31 | 1.77 | 2.95 | 2.95 | 971 | > 14100
4 | CC(CCC(=O)C12CC3CC(CC(C3)C1)C2)CCc1ccc2ccccc2c1 (stereo not drawn) [SR-01000359546] | 116.44 ± 14.37 | – | – | – | – | – | 1.36 | 1.36 | 3.46 ± 3.80 | > 14100 | – | – | – | – | 0.30 | 0.53 | 2.60 | 2.60 | – | –
5 | COc1cc(OC)cc(C(=O)NNC(=O)CCc2ccccc2)c1 [SR-01000359572] | 100.90 ± 10.01 | – | – | – | – | – | 2.65 | 2.65 | 6.12 ± 4.61 | > 14100 | – | – | – | – | 0.37 | 0.98 | 4.18 | 4.18 | 418 | –
6 | CCCCCCC(=O)NNC(=O)c1c(O)c2ccccc2n(CCC)c1=O [SR-01000360839] | 57.17 ± 6.17 | – | – | – | – | – | 4.41 | 2.59 | 0.18 ± 6.80 | – | – | – | – | – | 0.28 | 1.91 | 4.95 | 3.13 | 4100 | > 14100
7 | CC(C)C(=O)NNC(=O)C(C)Oc1ccc(Cl)cc1Cl (stereo not drawn) [SR-01000361172] | 91.50 ± 11.81 | – | – | – | – | – | 1.97 | 1.93 | 2.50 ± 11.74 | > 14100 | – | – | – | – | 0.40 | 1.48 | 2.81 | 2.78 | 2000 | –
8 | COc1ccc(CC(=O)NNC(=O)C(C)Oc2ccc(Cl)cc2Cl)cc1 (stereo not drawn) [SR-01000361779] | 89.14 ± 2.93 | 3.38 | 3.35 | 0.85 | 0.36 | 197 | 1.53 | 1.50 | 9.57 ± 4.06 | > 14100 | – | – | – | – | – | – | – | – | – | –
9 | O=C(COc1ccc2ccccc2c1)NNC(=O)c1cccc([N+](=O)[O-])c1 [SR-01000362228] | 84.08 ± 9.93 | – | – | – | – | – | 2.17 | 2.17 | −0.15 ± 6.76 | – | – | – | – | – | 0.30 | 1.38 | 3.11 | 3.10 | 1600 | > 14100
10 | Cc1ccc(S(=O)(=O)NC(=O)NC(C)Cc2ccccc2)cc1 (stereo not drawn) [SR-01000362293] | 100.19 ± 16.30 | 5.01 | 4.07 | 1.02 | 0.46 | 33.5 | – | – | – | – | 2.39 | 1.45 | −7.08 ± 3.92 | > 14100 | – | – | – | – | – | –
11 | COc1cccc(COC(=O)NC(C)C2COc3ccccc3O2)c1 (stereo not drawn) [SR-01000362527] | 96.08 ± 11.27 | – | – | – | – | – | 1.68 | 1.68 | 12.25 ± 2.76 | > 14100 | – | – | – | – | 0.34 | 0.88 | 2.98 | 2.98 | 701 | –
12 | C#CC1=C(CCCc2ccc(CC)cc2)CC(CCc2ccccc2CC)=C1 [SR-01000363853] | 87.50 ± 15.37 | – | – | – | – | – | 1.79 | 1.79 | −6.20 ± 7.21 | > 14100 | – | – | – | – | 0.29 | 0.77 | 2.73 | 2.73 | – | –
13 | Cc1ccc(CNc2nc3ccccc3n2CCN2CCOCC2)cc1 [SR-01000364205] | 94.68 ± 16.83 | – | – | – | – | – | 1.29 | 1.08 | −1.19 ± 1.27 | > 14100 | – | – | – | – | 0.33 | 1.55 | 2.50 | 2.29 | – | –
14 | COc1cccc(C(=O)NNC(=O)COc2ccc(C)cc2Br)c1 [SR-01000369718] | 111.46 ± 12.99 | 5.36 | 5.36 | 0.33 | 0.48 | 5.9 | – | – | – | – | 1.98 | 1.98 | 7.35 ± 13.00 | > 14100 | – | – | – | – | – | –
15 | CC(Oc1ccc(Cl)cc1Cl)C(=O)NNC(=O)COc1ccccc1 (stereo not drawn) [SR-01000370374] | 100.37 ± 4.50 | 3.80 | 3.75 | 0.87 | 0.39 | 114 | 1.71 | 1.66 | 4.76 ± 6.67 | > 14100 | – | – | – | – | – | – | – | – | – | –
16 | CC(C(=O)NCCn1nnn(-c2ccccc2)c1=O)n1nc2ccccc2n1 (stereo not drawn) [SR-01000373848] | 97.42 ± 13.41 | – | – | – | – | – | 1.47 | 1.47 | 7.32 ± 0.96 | – | – | – | – | – | 0.32 | 0.90 | 3.07 | 3.07 | 354 | > 14100
17 | CCSc1nc2sccn2c(=O)c1C(=O)NC(C)c1ccccc1 (stereo not drawn) [SR-01000378352] | 93.30 ± 10.83 | – | – | – | – | – | 1.53 | 1.53 | 8.83 ± 9.35 | > 14100 | – | – | – | – | 0.36 | 1.14 | 2.89 | 2.89 | 616 | –
18 | CS(=O)(=O)c1cccc(C(=O)NCCCN2CCc3ccccc32)c1 [SR-01000387617] | 81.90 ± 12.88 | – | – | – | – | – | 2.95 | 2.95 | 2.04 ± 4.49 | > 14100 | – | – | – | – | 0.35 | 0.75 | 4.28 | 4.28 | 661 | –
19 | O=C(O)c1ccccc1C(=O)c1cccc2ccccc12 [SR-01000391835] | 104.57 ± 1.81 | 5.91 | 2.52 | 0.80 | 0.44 | 254 | 4.05 | 0.66 | 10.10 ± 5.45 | > 18300 | – | – | – | – | – | – | – | – | – | –
20 | CCc1c(C2C(C(=O)OCc3ccccc3)=C(C)CC3=C2C(=O)CCC3)ccc(OC)c1OC (stereo not drawn) [SR-01000406098] | 80.99 ± 4.70 | – | – | – | – | – | 1.55 | 1.55 | 7.56 ± 6.15 | > 11500 | – | – | – | – | 0.24 | 1.97 | 2.46 | 2.46 | – | –
